Measurements from the NIST ThermoML archive (doi:10.1021/je030130y).
Numbers after ± are expanded uncertainties.

Columns and labels:
[1] = 101.3 kPa, Liquid; for viscosity: Capillary tube (Ostwald / Ubbelohde) method; for mass density: Pycnometric method
[2] = xn = mol fraction of the nth substance listed; settings: 101.3 kPa, Liquid; for viscosity: Capillary tube (Ostwald / Ubbelohde) method; for mass density: Pycnometric method

| SMILES | viscosity ([1]; 298.15 K) [mPa·s] | mass density ([1]; 298.15 K) [kg/m3] | viscosity ([1]; 303.15 K) [mPa·s] | mass density ([1]; 303.15 K) [kg/m3] | viscosity ([1]; 308.15 K) [mPa·s] | mass density ([1]; 308.15 K) [kg/m3] | viscosity ([1]; 313.15 K) [mPa·s] | mass density ([1]; 313.15 K) [kg/m3] | viscosity ([2]; 298.15 K, x1 = 1) [mPa·s] | mass density ([2]; 298.15 K, x1 = 1) [kg/m3] | viscosity ([2]; 303.15 K, x1 = 1) [mPa·s] | mass density ([2]; 303.15 K, x1 = 1) [kg/m3] | viscosity ([2]; 308.15 K, x1 = 1) [mPa·s] | mass density ([2]; 308.15 K, x1 = 1) [kg/m3] | viscosity ([2]; 313.15 K, x1 = 1) [mPa·s] | mass density ([2]; 313.15 K, x1 = 1) [kg/m3] | other results |
| --- | --- | --- | --- | --- | --- | --- | --- | --- | --- | --- | --- | --- | --- | --- | --- | --- | --- |
| c1ccccc1 [benzene] | 0.603 ± 0.006 | 873.4 ± 0.5 | 0.568 ± 0.005 | 868.2 ± 0.5 | 0.531 ± 0.005 | 862.9 ± 0.5 | 0.5 ± 0.005 | 857.4 ± 0.5 | – | – | – | – | – | – | – | – | – |
| c1ccccc1 [benzene] + CN(C)C=O | – | – | – | – | – | – | – | – | – | – | – | – | – | – | – | – | viscosity ([2]; 298.15 K, x2 = 0): 0.603 ± 0.006 mPa·s; mass density ([2]; 298.15 K, x2 = 0): 873.4 ± 0.5 kg/m3; viscosity ([2]; 303.15 K, x2 = 0): 0.568 ± 0.005 mPa·s; mass density ([2]; 303.15 K, x2 = 0): 868.2 ± 0.5 kg/m3; viscosity ([2]; 308.15 K, x2 = 0): 0.531 ± 0.005 mPa·s; mass density ([2]; 308.15 K, x2 = 0): 862.9 ± 0.5 kg/m3; viscosity ([2]; 313.15 K, x2 = 0): 0.5 ± 0.005 mPa·s; mass density ([2]; 313.15 K, x2 = 0): 857.4 ± 0.5 kg/m3 |
| c1ccccc1 [benzene] + Clc1ccccc1 | – | – | – | – | – | – | – | – | 0.603 ± 0.006 | 873.4 ± 0.5 | 0.568 ± 0.005 | 868.2 ± 0.5 | 0.531 ± 0.005 | 862.9 ± 0.5 | 0.5 ± 0.005 | 857.4 ± 0.5 | – |
| Clc1ccccc1 [chlorobenzene] | 0.756 ± 0.006 | 1100.9 ± 0.4 | 0.714 ± 0.006 | 1095.8 ± 0.4 | 0.673 ± 0.005 | 1090.8 ± 0.4 | 0.635 ± 0.005 | 1085.1 ± 0.4 | – | – | – | – | – | – | – | – | – |
| CN(C)C=O [dimethylformamide] | 0.803 ± 0.006 | 944.5 ± 0.3 | 0.756 ± 0.006 | 939.8 ± 0.3 | 0.71 ± 0.005 | 935.1 ± 0.3 | 0.673 ± 0.005 | 930.2 ± 0.4 | – | – | – | – | – | – | – | – | – |
| CN(C)C=O [dimethylformamide] + Clc1ccccc1 | – | – | – | – | – | – | – | – | 0.803 ± 0.006 | 944.5 ± 0.3 | 0.756 ± 0.006 | 939.8 ± 0.3 | 0.71 ± 0.005 | 935.1 ± 0.3 | 0.673 ± 0.005 | 930.2 ± 0.4 | – |
